Laboratory results as given in ChEMBL document CHEMBL1201862, “PubChem BioAssay data set” (2004).
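The compound was tested at five concentrations on cells cultured in 96-well plates, with a 48-hour exposure period. Here, GI50 denotes the concentration required for 50% inhibition of growth.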 Calls of active or inactive are those of the source. Rule as the data show it: active = GI50 up to about 1.1 µM and inactive = higher.

Tests used:
Assay in all cases: inhibition of tumour cell growth, NCI panel, 48 h
[1] = system: MCF7
[2] = system: MDA-MB-435
[3] = system: HCT-116
[4] = system: SK-MEL-28
[5] = system: SW-620
[6] = system: SF-268
[7] = system: NCI-H23
[8] = system: HCT-15
[9] = system: SF-539
[10] = system: 786-0
[11] = system: NCI-H226
[12] = system: SK-OV-3
[13] = system: Hs-578T
[14] = system: SNB-75
[15] = system: HT-29
[16] = system: M14
[17] = system: A498
[18] = system: RPMI-8226
[19] = system: OVCAR-3
[20] = system: CCRF-CEM
[21] = system: MDA-MB-231
[22] = system: SN12C
[23] = system: EKVX
[24] = system: SK-MEL-2
[25] = system: A549
[26] = system: MDA-N
[27] = system: UACC-257
[28] = system: SR
[29] = system: MOLT-4
[30] = system: OVCAR-5
[31] = system: CAKI-1
[32] = system: SK-MEL-5
[33] = system: OVCAR-8
[34] = system: HOP-62
[35] = system: OVCAR-4
[36] = system: T47D
[37] = system: LOX IMVI
[38] = system: NCI-H460
[39] = system: COLO 205
[40] = system: HCC 2998
[41] = system: DU-145
[42] = system: RXF 393
[43] = system: UACC-62
[44] = system: SNB-19
[45] = system: U-251
[46] = system: PC-3
[47] = system: HL-60
[48] = system: SF-295
[49] = system: UO-31
[50] = system: IGROV-1
[51] = system: HOP-92
[52] = system: NCI/ADR-RES
[53] = system: NCI-H522
[54] = system: Malme-3M
[55] = system: K562
[56] = system: KM12
[57] = system: ACHN
[58] = system: BT-549
[59] = system: TK-10

N#Cc1c(N2CCCC2)ncn(-c2ccccc2)c1=S
GI50 [1]: > 100 µM (inactive)
GI50 [2]: > 100 µM (inactive)
GI50 [3]: > 100 µM (inactive)
GI50 [4]: > 100 µM (inactive)
GI50 [5]: > 100 µM (inactive)
GI50 [6]: > 100 µM (inactive)
GI50 [7]: > 100 µM (inactive)
GI50 [8]: > 100 µM
GI50 [9]: > 100 µM (inactive)
GI50 [10]: > 100 µM (inactive)
GI50 [11]: > 100 µM (inactive)
GI50 [12]: > 100 µM (inactive)
GI50 [13]: > 100 µM (inactive)
GI50 [14]: 94.8 µM (inactive)
GI50 [15]: > 100 µM (inactive)
GI50 [16]: > 100 µM (inactive)
GI50 [17]: > 100 µM (inactive)
GI50 [18]: > 100 µM (inactive)
GI50 [19]: > 100 µM (inactive)
GI50 [20]: > 100 µM (inactive)
GI50 [21]: > 100 µM (inactive)
GI50 [22]: > 100 µM (inactive)
GI50 [23]: > 100 µM (inactive)
GI50 [24]: > 100 µM (inactive)
GI50 [25]: > 100 µM (inactive)
GI50 [26]: > 100 µM (inactive)
GI50 [27]: > 100 µM (inactive)
GI50 [28]: > 100 µM (inactive)
GI50 [29]: > 100 µM (inactive)
GI50 [30]: > 100 µM (inactive)
GI50 [31]: > 100 µM (inactive)
GI50 [32]: > 100 µM (inactive)
GI50 [33]: > 100 µM (inactive)
GI50 [34]: > 100 µM (inactive)
GI50 [35]: > 100 µM (inactive)
GI50 [36]: > 100 µM (inactive)
GI50 [37]: > 100 µM (inactive)
GI50 [38]: > 100 µM (inactive)
GI50 [39]: > 100 µM (inactive)
GI50 [40]: > 100 µM (inactive)
GI50 [41]: > 100 µM (inactive)
GI50 [42]: > 100 µM (inactive)
GI50 [43]: 19.5 µM (inactive)
GI50 [44]: > 100 µM (inactive)
GI50 [45]: > 100 µM (inactive)
GI50 [46]: > 100 µM (inactive)
GI50 [47]: > 100 µM (inactive)
GI50 [48]: > 100 µM (inactive)
GI50 [49]: > 100 µM (inactive)
GI50 [50]: > 100 µM (inactive)
GI50 [51]: > 100 µM (inactive)
GI50 [52]: > 100 µM (inactive)
GI50 [53]: > 100 µM (inactive)
GI50 [54]: > 100 µM (inactive)
GI50 [55]: > 100 µM (inactive)
GI50 [56]: > 100 µM (inactive)
GI50 [57]: > 100 µM (inactive)
GI50 [58]: > 100 µM (inactive)
GI50 [59]: > 100 µM (inactive)

COc1ccccc1CC1(O)OC(=O)c2ccccc21 (stereo unspecified)
GI50 [1]: > 100 µM (inactive)
GI50 [2]: > 100 µM (inactive)
GI50 [3]: > 100 µM (inactive)
GI50 [4]: > 100 µM (inactive)
GI50 [5]: > 100 µM (inactive)
GI50 [6]: > 100 µM (inactive)
GI50 [7]: > 100 µM (inactive)
GI50 [8]: > 100 µM
GI50 [9]: > 100 µM (inactive)
GI50 [10]: > 100 µM (inactive)
GI50 [11]: > 100 µM (inactive)
GI50 [12]: > 100 µM (inactive)
GI50 [13]: > 100 µM (inactive)
GI50 [14]: > 100 µM (inactive)
GI50 [15]: > 100 µM (inactive)
GI50 [16]: > 100 µM (inactive)
GI50 [17]: > 100 µM (inactive)
GI50 [18]: > 100 µM (inactive)
GI50 [19]: > 100 µM (inactive)
GI50 [20]: > 100 µM (inactive)
GI50 [21]: > 100 µM (inactive)
GI50 [22]: > 100 µM (inactive)
GI50 [23]: > 100 µM (inactive)
GI50 [24]: > 100 µM (inactive)
GI50 [25]: > 100 µM (inactive)
GI50 [26]: > 100 µM (inactive)
GI50 [27]: > 100 µM (inactive)
GI50 [28]: > 100 µM (inactive)
GI50 [29]: > 100 µM (inactive)
GI50 [30]: > 100 µM (inactive)
GI50 [31]: > 100 µM (inactive)
GI50 [32]: > 100 µM (inactive)
GI50 [33]: > 100 µM (inactive)
GI50 [34]: > 100 µM (inactive)
GI50 [35]: > 100 µM (inactive)
GI50 [36]: > 100 µM (inactive)
GI50 [37]: > 100 µM (inactive)
GI50 [38]: > 100 µM (inactive)
GI50 [39]: > 100 µM (inactive)
GI50 [40]: > 100 µM (inactive)
GI50 [41]: > 100 µM (inactive)
GI50 [42]: > 100 µM (inactive)
GI50 [43]: > 100 µM (inactive)
GI50 [44]: > 100 µM (inactive)
GI50 [45]: > 100 µM (inactive)
GI50 [46]: > 100 µM (inactive)
GI50 [47]: > 100 µM (inactive)
GI50 [48]: > 100 µM (inactive)
GI50 [49]: > 100 µM (inactive)
GI50 [50]: > 100 µM (inactive)
GI50 [51]: > 100 µM (inactive)
GI50 [52]: > 100 µM (inactive)
GI50 [53]: > 100 µM (inactive)
GI50 [54]: > 100 µM (inactive)
GI50 [55]: > 100 µM (inactive)
GI50 [56]: > 100 µM (inactive)
GI50 [57]: > 100 µM (inactive)
GI50 [58]: > 100 µM (inactive)
GI50 [59]: > 100 µM (inactive)

Cc1ccc(N/N=C2\C3=C(CCC(C)(C)O3)C(=O)c3ccccc32)cc1
GI50 [1]: 13.7 µM (inactive)
GI50 [2]: 17.9 µM (inactive)
GI50 [3]: 21.3 µM (inactive)
GI50 [4]: 21.9 µM (inactive)
GI50 [5]: 33.8 µM (inactive)
GI50 [6]: 30.3 µM (inactive)
GI50 [7]: 10.8 µM (inactive)
GI50 [8]: 27.5 µM
GI50 [9]: 39.3 µM (inactive)
GI50 [10]: 28 µM (inactive)
GI50 [11]: 35.2 µM (inactive)
GI50 [12]: > 100 µM (inactive)
GI50 [13]: 11.6 µM (inactive)
GI50 [14]: 19.2 µM (inactive)
GI50 [15]: 18.8 µM (inactive)
GI50 [16]: 16.9 µM (inactive)
GI50 [17]: 18.3 µM (inactive)
GI50 [18]: 26.5 µM (inactive)
GI50 [19]: 24.2 µM (inactive)
GI50 [20]: 15.1 µM (inactive)
GI50 [21]: 56.1 µM (inactive)
GI50 [22]: 14.6 µM (inactive)
GI50 [23]: 25.5 µM (inactive)
GI50 [24]: 18.9 µM (inactive)
GI50 [25]: 16 µM (inactive)
GI50 [26]: 4.43 µM (inactive)
GI50 [27]: 11 µM (inactive)
GI50 [28]: 16.5 µM (inactive)
GI50 [29]: 28.8 µM (inactive)
GI50 [30]: 18.4 µM (inactive)
GI50 [31]: 28.2 µM (inactive)
GI50 [32]: 4.17 µM (inactive)
GI50 [33]: 34.4 µM (inactive)
GI50 [34]: 20.6 µM (inactive)
GI50 [35]: 18.2 µM (inactive)
GI50 [36]: 18.2 µM (inactive)
GI50 [37]: 10.3 µM (inactive)
GI50 [38]: 17.4 µM (inactive)
GI50 [39]: 24.7 µM (inactive)
GI50 [40]: 19.7 µM (inactive)
GI50 [41]: 12.4 µM (inactive)
GI50 [42]: 32.4 µM (inactive)
GI50 [43]: 14.9 µM (inactive)
GI50 [44]: 20.8 µM (inactive)
GI50 [45]: 37.5 µM (inactive)
GI50 [46]: 37.6 µM (inactive)
GI50 [47]: 15.2 µM (inactive)
GI50 [48]: 14.7 µM (inactive)
GI50 [49]: 23.4 µM (inactive)
GI50 [50]: 29.1 µM (inactive)
GI50 [51]: 43.5 µM (inactive)
GI50 [52]: 25.6 µM (inactive)
GI50 [53]: 32.4 µM (inactive)
GI50 [54]: 9.16 µM (inactive)
GI50 [55]: 32.4 µM (inactive)
GI50 [56]: 21.8 µM (inactive)
GI50 [57]: 23.9 µM (inactive)
GI50 [58]: 26.1 µM (inactive)
GI50 [59]: 26.8 µM (inactive)

Cc1ccc2c(c1)C(=O)C(Cc1ccccc1C(=O)O)C2 (stereo unspecified)
GI50 [1]: > 100 µM (inactive)
GI50 [2]: > 100 µM (inactive)
GI50 [3]: > 100 µM (inactive)
GI50 [4]: > 100 µM (inactive)
GI50 [5]: > 100 µM (inactive)
GI50 [6]: > 100 µM (inactive)
GI50 [7]: > 100 µM (inactive)
GI50 [8]: > 100 µM
GI50 [9]: > 100 µM (inactive)
GI50 [10]: > 100 µM (inactive)
GI50 [11]: > 100 µM (inactive)
GI50 [12]: > 100 µM (inactive)
GI50 [13]: > 100 µM (inactive)
GI50 [14]: > 100 µM (inactive)
GI50 [15]: > 100 µM (inactive)
GI50 [16]: > 100 µM (inactive)
GI50 [17]: > 100 µM (inactive)
GI50 [18]: > 100 µM (inactive)
GI50 [19]: > 100 µM (inactive)
GI50 [20]: > 100 µM (inactive)
GI50 [21]: > 100 µM (inactive)
GI50 [22]: > 100 µM (inactive)
GI50 [23]: > 100 µM (inactive)
GI50 [24]: > 100 µM (inactive)
GI50 [25]: > 100 µM (inactive)
GI50 [26]: > 100 µM (inactive)
GI50 [27]: > 100 µM (inactive)
GI50 [28]: > 100 µM (inactive)
GI50 [29]: > 100 µM (inactive)
GI50 [30]: > 100 µM (inactive)
GI50 [31]: > 100 µM (inactive)
GI50 [32]: > 100 µM (inactive)
GI50 [33]: > 100 µM (inactive)
GI50 [34]: > 100 µM (inactive)
GI50 [35]: > 100 µM (inactive)
GI50 [36]: > 100 µM (inactive)
GI50 [37]: > 100 µM (inactive)
GI50 [38]: > 100 µM (inactive)
GI50 [39]: > 100 µM (inactive)
GI50 [40]: > 100 µM (inactive)
GI50 [41]: > 100 µM (inactive)
GI50 [42]: > 100 µM (inactive)
GI50 [43]: > 100 µM (inactive)
GI50 [44]: > 100 µM (inactive)
GI50 [45]: > 100 µM (inactive)
GI50 [46]: > 100 µM (inactive)
GI50 [47]: > 100 µM (inactive)
GI50 [48]: > 100 µM (inactive)
GI50 [49]: > 100 µM (inactive)
GI50 [50]: > 100 µM (inactive)
GI50 [51]: > 100 µM (inactive)
GI50 [52]: > 100 µM (inactive)
GI50 [53]: > 100 µM (inactive)
GI50 [54]: > 100 µM (inactive)
GI50 [55]: > 100 µM (inactive)
GI50 [56]: > 100 µM (inactive)
GI50 [57]: > 100 µM (inactive)
GI50 [58]: > 100 µM (inactive)
GI50 [59]: > 100 µM (inactive)
